Source: US20070270455A1, “INHIBITION OF NF-kB” (priority 2005, published 2007)
Residues, ends and D or L forms follow the SMILES beside them. *: point of attachment. Cbz = O=C(OCc1ccccc1)*

Columns and labels:
RCC45ConALacZ cells = test: p53-responsive reporter (ConALacZ) β-galactosidase assay in RCC45 cells; assay type: cell-based; conditions: compared with doxorubicin
Method: 2×10^4 of RCC45ConALacZ cells were plated into wells of 96 well plates in 200 μL of phenol-red free RPMI medium with standard additives. After overnight incubation library of chemical compounds in DMSO solution together with controls was added with the help of plastic bacterial replicators (200+/−100 nL). Final concentration of compounds was around 5 μg/ml. Negative control was DMSO, positive control was doxorubicin solution (0.2, 0.6 and 2 μM). After 24 hours lysis buffer with ONPG was added directly to the medium on ice. After 3 hours of incubation at 37° C., β-galactosidase activity was estimated by reading absorbance values Wallack 1420 plate reader (Perkin Elmer) at λ=430 nm.
For cotransfection set-up, 2×10^5 cells were plated into 6 well plates and, after overnight incubation, transfected with Lipofectamin Plus reagent (Gibco BRL) with 0.5 μg of reporter plasmids (p21-ConALuc or pNF-κBLuc) in combination with different concentrations of p53, Arf, Ss-IκB, or siHDM2 expressing plasmids. […] Luciferase activity and β-galactosidase activity was measured in lysates prepared 48 hours after transfection with Cell Lysis Buffer (Promega) by luciferase assay system (Promega) or β-galactosidase enzyme system (Promega). Luminometric and colorimetric reactions were read on the Wallack 1420 plate reader (Perkin Elmer). […]

HT1080ConALuC tumors = test: p53-dependent luciferase reporter in xenograft tumors; assay type: in vivo; conditions: intraperitoneal; 24 hours; nude mice
Method: (§1) HT1080ConALuC cells were inoculated into two flanks of nude mice. When tumors reach 5 mm in diameter, mice were injected intraperitoneally with indicated concentrations of the drugs (mg/kg, 3 mice per group). After 24 hours mice were sacrificed, tumors were isolated, lysed in Reporter Lysis Reagent (Promega) and luciferase activity was measured in […] of tumor proteins. Bars represent fold of induction of luciferase activity in tumors, treated with drugs over luciferase activity in tumors treated with vehicle. FIG. 5B: HT1080sip53 or HT1080siGFP cells were inoculated in the left and right flank of nude mice respectively.
(§2) NIH Swiss athymic nude, male mice, 5-6 weeks old were purchased from Harlan. 5×10^6 of tumor cells were inoculated into the flank of mice in 100 μL of PBS. […] As vehicle, 50% DMSO solution in PBS was used. Tumor size was measured in three dimensions every other day.
The in vivo anti-tumor effects of aminoacridines were tested in a xenograft tumor model using HT1080 cells differing in their p53 status and carrying p53 luciferase reporters grown subcutaneously in nude mice.

HT1080siGFP cells = test: Xenograft tumor growth, p53-expressing tumors; assay type: in vivo, nude mice; conditions: 50 mg/kg i.p. daily; 5FU 35 mg/kg for comparison
Method: as §1, §2

HT1080sip53 cells = test: Xenograft tumor growth, p53-deficient tumors; assay type: in vivo, nude mice; conditions: 50 mg/kg i.p. daily
Method: as §1, §2

[1] = test system: PC3 p53-negative or DU145 cells comprising mutant p53; test: Prostate cancer xenograft tumor growth; assay type: in vivo, mice; conditions: 100 mg/kg by oral gavage; control sterile water
Description: Mice were also inoculated with 2×10^6 human prostate cancer cells using PC3 p53-negative or with DU145 cells comprising mutant p53. […] Tumor growth was reduced by ˜50% in quinacrine-treated mice.

H1299-NF-kBLuc cells = test: NF-κB-responsive luciferase reporter assay; assay type: cell-based; conditions: basal and TNF-induced (10 ng/ml)
RCC cell lines = test: Restoration of p53-mediated transactivation in RCC cell lines; assay type: cell-based; conditions: data not shown
[2] = test system: RCC specimens and fragments of normal kidney; test: p53-responsive lacZ reporter in ex vivo organ cultures; assay type: cell-based; conditions: 24 hours, X-gal
Method: (§3) IC50% for each cell line and each drug was determined. Each point represents IC50% of particular cell line, which are grouped as follows: (i) black circles—RCC cell lines (ACHN, RCC9, RCC13, RCC29, RCC45, RCC54), (ii) red triangles—non-RCC cell lines (MCF7, HT1080, H1299, U20S, LNCaP, HCT116), (iii) green squares—normal kidney cells (NKE). […] 10^7 of ACHN cells were inoculated under the skin of nude mice. At the moment tumors achieved 5 mm in diameter QC administrations were started intraperitoneally, 50 mg/kg. 5FU (35 mg/kg) was used as a control. Tumor size was measured every other day and presented as a fold increase in tumor volume.
Fresh RCC specimens and fragments of normal kidney from the same patients were placed in short-term organ cultures in the media containing lentiviral vector carrying p53-responsive lacZ reporter (FIG. 10B) for 24 hours.

[3] = test system: RCC54 and RCC45, normal kidney epithelial cells; test: Sensitization to TRAIL, methylene blue assay; assay type: cell-based; conditions: RCC54, RCC45 vs normal kidney epithelial cells; combination with TRAIL
ACHN cells = test: ACHN tumor xenograft growth; assay type: in vivo, nude mice
Method: as §3, §2

[4] = test system: HT1080-sip53 and HT1080-siGFP cells; test: Cell survival assay in isogenic cell pairs with anti-p53 or control siRNA; assay type: cell-based, human; conditions: p53 plus vs minus cells; FIG. 4d
p53 = test: Western blot of p53 phosphorylation status in RCC45 cells; assay type: cell-based; conditions: 9AA 5 μM or dox 1 μM, 16 hours
Method: (§4) Western blot analysis of total protein lysates was performed using antibodies against p53 (DO1) and against specific sites of phosphorylation in p53. […] HCT116 cells were treated for 30 minutes with 1 μM PS-341. PS-341 was washed off after 30 minutes and cells were re-incubated in drug free medium prior to analysis at 3 hours or 16 hours post-treatment. […] Proteasome activity was determined by measuring the absorbance of free AMC generated by cleavage of an AMC-fluorogenic peptide. The proteasome activity of untreated cells was set at 100%. […] Cell lysates were isolated at the indicated hours after treatment and used for western blotting. […]
(§5) Cells were lysed in RIPA buffer (25 mM Tris HCl, pH7.2, 125 mM NaCl, 1% NP40, 1% sodium deoxycholate, 1 mM EDTA) containing 1 mM PMSF (Sigma), 10 μg/ml of aprotinin (Sigma) and 10 μg/ml of leupeptin (Sigma). Protein concentrations were determined with BioRad Dc protein assay kit. […] The following antibodies were used: anti-p53—monoclonal mouse DO1 (Santa-Cruz), anti-p21—monoclonal mouse F-5 (Santa-Cruz), anti-mdm2—monoclonal mouse SMP14 (Santa-Cruz). p53 phosphorylation status was analyzed using phospho-p53 sampler kit from Cell signaling according to manufacturer's recommendations, anti-p65—(C20, Santa Cruz), anti-phospho-p65—(ser536, Cell Signaling), anti-IκBa—(C21, Santa Cruz), anti-p50—(NLS, Santa Cruz). […]

IκB = test: Western blot of IκB level and phosphorylation; assay type: cell-based; conditions: PC-3 cells, 10 μM; MCF7 cells
Method: as §4, §5

CCN(CC)CCCC(C)Nc1c2ccc(Cl)cc2nc2ccc(OC)cc12 (stereo not shown) [quinacrine, Quinacrine]
p53 reactivation / reporter induction (in words) (RCC45ConALacZ cells): intermediate level of activity
activation of p53 in tumors (HT1080ConALuC tumors): capable of activating p53 in tumors
growth of p53-expressing tumors (HT1080siGFP cells): inhibited growth of p53-expressing tumors to the same extend as 5FU
growth of p53-deficient tumors (HT1080sip53 cells): no effect
reduction of tumor growth [1]: ~50%
NF-κB-responsive reporter activity (H1299-NF-kBLuc cells): inhibited basal and TNF-induced activity of the reporter
RCC cell lines with restored p53-mediated transactivation (RCC cell lines): 9 out of 10
expression of p53-responsive reporter in tumor samples [2]: induced expression of the p53-responsive reporter
TRAIL resistance [3]: inverted TRAIL resistance of tumor but not normal kidney cells
weight loss (in words) (ACHN cells; 50 mg/kg intraperitoneally): without significant weight loss
inhibition of tumor growth (ACHN cells; ACHN s.c. in nude mice, 50 mg/kg intraperitoneally): about 50%

O=c1[nH]cc(F)c(=O)[nH]1 [5FU, 5-fluorouracil]
weight loss (ACHN cells; 5FU 35 mg/kg): up to 20%

COc1cccc2c1C(=O)c1c(O)c3c(c(O)c1C2=O)C[C@@](O)(C(=O)CO)C[C@@H]3O[C@H]1C[C@H](N)[C@H](O)[C@H](C)O1 [doxorubicin]
toxicity found to be p53-dependent (none = not p53-dependent) [4]: none
p53 phosphorylation status (p53): did induce phosphorylation of p53
expression of p53-responsive reporter in tumor samples [2]: not

CC[C@@]1(O)C(=O)OCc2c1cc1n(c2=O)Cc2cc3ccccc3nc2-1 [camptothecin]
toxicity found to be p53-dependent (none = not p53-dependent) [4]: none

CC(C)C[C@@H](C=O)NC(=O)[C@H](CC(C)C)NC(=O)[C@H](CC(C)C)NC(=O)OCc1ccccc1 [MG132] (Cbz-Leu-Leu-Leu-aldehyde)
level of IκB (IκB): caused accumulation of phosphorylated forms of IkB

CC[C@]1(O)C[C@@H]2CN(CCc3c([nH]c4ccccc34)[C@@](C(=O)OC)(c3cc4c(cc3OC)N(C)[C@H]3[C@@](O)(C(=O)OC)[C@H](OC(C)=O)[C@]5(CC)C=CCN6CC[C@]43[C@@H]65)C2)C1 [vinblastine]
toxicity found to be p53-dependent (none = not p53-dependent) [4]: none

CC(=O)O[C@H]1C(=O)[C@@]2(C)[C@H]([C@H](OC(=O)c3ccccc3)[C@]3(O)C[C@H](OC(=O)[C@H](O)[C@@H](NC(=O)c4ccccc4)c4ccccc4)C(C)=C1C3(C)C)[C@]1(OC(C)=O)CO[C@@H]1C[C@@H]2O [paclitaxel]
toxicity found to be p53-dependent (none = not p53-dependent) [4]: none
